One assay has as its system Ramos lymphoma cells. The assay can be described thus: Subcutaneous Ramos lymphoma xenograft in NOD/SCID mice. The note with it: PG545 IP 20 mg/kg once weekly from one day after inoculation. Format: in vivo, human. The method, then:
(§1) Lymphoma cells were also inoculated subcutaneously at the right flank of 6-weeks-old NOD/SCID mice (human cell lines) or C57BL/6 mice (E1-4 mouse lymphoma cells) (n=7). Mice were treated with heparanase inhibitors (PG545; SST0001) or neutralizing antibodies and xenografts size was determined by externally measuring the tumors in 2 dimensions using a caliper. At the end of the experiment, mice were sacrificed; tumor xenografts were removed, weighed and fixed for histological and immunohistochemical analyses (Weissmann et al, 2016, Proc Natl Acad Sci USA 113:704-709). […]
(§2) A. Specimens of human follicular (FIG. 1A, left panel) and diffuse (FIG. 1A, right panel) B-cell lymphomas were subjected for immunostaining applying anti-heparanase antibody. […] Lysates of Raji cells and extracts of tumor xenografts produced by Raji cells were applied onto dishes coated with sulfate-labelled ECM and heparanase enzymatic activity was determined as described (Vlodaysky I, et al. 1999, Nature Med 5(7):793-802). […] Extracts of control (Con) and PG545-treated tumor xenografts produced by Raji cells were applied onto dishes coated with sulfate labelled ECM and heparanase activity was determined as above (lower panel).
Background: In xenograft studies the graft and the host belong to different species.

A further assay relates to Raji lymphoma cells. As to the kind of experiment: Subcutaneous Raji lymphoma xenograft in NOD/SCID mice. Type of assay: in vivo, human. The method, then:
as §1, §2

In a further assay the test system is Daudi lymphoma cells. As to the kind of experiment: Subcutaneous Daudi lymphoma xenograft in NOD/SCID mice. Format: in vivo, human. The conditions noted are these: PG545 IP 20 mg/kg once weekly from one day after inoculation. On the procedure:
as §1, §2

The test system of the next assay is OCI-LY-19 lymphoma cells. As to the kind of experiment: Subcutaneous OCI-LY-19 lymphoma xenograft in NOD/SCID mice. Type of assay: in vivo, human. The conditions noted are these: OCI-LY-19, PG545 IP 20 mg/kg once weekly from one day after inoculation. On the procedure:
as §1, §2

For the next assay, the system named is SU-DHL-6 lymphoma cells. The assay can be described thus: Subcutaneous SU-DHL-6 lymphoma xenograft in mice. Format: in vivo, human. The note with it: SU-DHL-6, PG545 IP 20 mg/kg once weekly from one day after inoculation.
In assay [1] the test system is human lymphoma cell lines. The assay can be described thus: Subcutaneous human lymphoma xenografts, dose response and treatment of palpable tumors (cell lines only 'indicated'). Type of assay: in vivo. On the procedure:
as §1, §2

In assay [2] the test system is E1-4 mouse lymphoma cells. The assay can be described thus: Subcutaneous E1-4 mouse lymphoma tumors. Type of assay: in vivo. The conditions noted are these: E1-4 cells lacking heparanase activity. On the procedure: (§3) Lymphoma cells were also inoculated subcutaneously at the right flank of 6-weeks-old NOD/SCID mice (human cell lines) or C57BL/6 mice (E1-4 mouse lymphoma cells) (n=7). Mice were treated with heparanase inhibitors (PG545; SST0001) or neutralizing antibodies and xenografts size was determined by externally measuring the tumors in 2 dimensions using a caliper. At the end of the experiment, mice were sacrificed; tumor xenografts were removed, weighed and fixed for histological and immunohistochemical analyses (Weissmann et al, 2016, Proc Natl Acad Sci USA 113:704-709). ESb mouse T-lymphoma cells (5×10^5) were similarly inoculated subcutaneously into SCID mice and spontaneous metastasis to the liver (Vlodaysky et al., 1983, Cancer Res 43:2704-2711) was examined after 3 weeks of treatment with PG545 or the neutralizing mAb, as described above. All animal experiments were approved by the Animal Care Committee of the Technion, Haifa, Israel.

Assay [3] has as its system ESb mouse T-lymphoma cells. The assay can be described thus: ESb T-lymphoma spontaneous liver metastasis and survival. The note with it: PG545 20 mg/kg once a week. Type of assay: in vivo. On the procedure: as §3
FIG. 3A. HEK 293 cells were incubated with latent 65 kDa (upper panel) or GS3 constitutively active heparanase (1 μg/ml; third panel) and the indicated mAbs (10 μg/ml). The cell medium was aspirated at the time designated and cell lysates were subjected to immunoblotting applying anti-heparanase antibody (upper and third panels). […] Heparanase-transfected 293 cells were grown with control mouse IgM or mAb 9E8 for two days. Cells were then fixed with methanol and subjected to immunofluorescent staining applying anti heparanase antibody (second panel) or lysed and subjected to immunoblotting applying anti-heparanase antibody (fourth panel). Purified recombinant active heparanase (200 ng) was pre-incubated with control mouse IgM ( ? ), mAb 8A5 ( ? ), mAb 9E8 ( ? ), all at 2 μg/ml, for 2 h in serum-free RPMI medium on ice. The mixture was then applied onto ^35S-labeled ECM-coated dishes and heparanase activity was determined as described above (lower panel). FIG. 3B, C. […] Quantification of the extent of CD45 staining is shown graphically in the lower panel. […]

A further assay deals with Raji-luciferase cells. As to the kind of experiment: Raji-luciferase lymphoma, tail vein inoculation, bone marrow growth by IVIS imaging. Format: in vivo, human. The note with it: PG545 20 mg/kg once a week. On the procedure:
Tumorigenicity. Luciferase-labelled CAG myeloma (5×10^6) or Raji lymphoma (1×10^6) cells were injected into the tail vein of NOD/SCID mice (n=5). Mice were treated with PG545 (20 mg/kg, once weekly), mAb 9E8 (600 μg/mouse) every other day starting one day following cell inoculation and tumor growth was examined by IVIS imaging. At termination, mice were sacrificed, the backbones were excised, fixed in formalin and following de-calcification with 10% EDTA solution were embedded in paraffin and subjected to histological and immunohistochemical analyses essentially as described (Weissmann et al, 2016, Proc Natl Acad Sci USA 113:704-709). Dose of 25-30 mg/kg (i.e., 500-600 μg mAb/mouse) is typical in cancer restraining experiments (Van Looy T, et al. 2015, Transl Oncol 8(2):112-118).
IVIS imaging. Bioluminescent imaging of the luciferase-expressing tumors was performed with a highly sensitive, cooled charge coupled device (CCD) camera mounted in a light-tight specimen box (IVIS; Xenogen Corp., Waltham, Mass.). Briefly, mice were injected intraperitoneally with D-luciferin substrate at 150 mg/kg, anesthetized and placed onto a stage inside the light-tight camera box, with continuous exposure to isoflurane (EZAnesthesia, Palmer, Pa.). Light emitted from the bioluminescent cells was detected by the IVIS camera system with images quantified for tumor burden using a log-scale color range set at 5×10^4 to 1×10^7 and measurement of total photon counts per second (PPS) using Living Image software (Xenogen) (Weissmann et al, 2016, Proc Natl Acad Sci USA 113:704-709).
FIG. 4A. Raji-luciferase cells (1×10^6) were injected into the tail vein of NOD/SCID mice (n=5). Mice were treated with PG545 (20 mg/kg once a week) starting one day after cell inoculation and IVIS imaging was applied to quantify tumor load. […] NOD/SCID mice (n=5) were inoculated (iv) with Raji-luciferase cells and mice were treated with mAb 9E8 (600 μg/mouse every other day) (FIG. 4C) and tumor growth was evaluated by IVIS imaging (left panels). Quantification of luciferase signals is shown graphically in the right lower panel.

A further assay has as its target T1, heparanase (Homo sapiens, UniProt Q9Y251).
T1 sequence (Q9Y251 36-543): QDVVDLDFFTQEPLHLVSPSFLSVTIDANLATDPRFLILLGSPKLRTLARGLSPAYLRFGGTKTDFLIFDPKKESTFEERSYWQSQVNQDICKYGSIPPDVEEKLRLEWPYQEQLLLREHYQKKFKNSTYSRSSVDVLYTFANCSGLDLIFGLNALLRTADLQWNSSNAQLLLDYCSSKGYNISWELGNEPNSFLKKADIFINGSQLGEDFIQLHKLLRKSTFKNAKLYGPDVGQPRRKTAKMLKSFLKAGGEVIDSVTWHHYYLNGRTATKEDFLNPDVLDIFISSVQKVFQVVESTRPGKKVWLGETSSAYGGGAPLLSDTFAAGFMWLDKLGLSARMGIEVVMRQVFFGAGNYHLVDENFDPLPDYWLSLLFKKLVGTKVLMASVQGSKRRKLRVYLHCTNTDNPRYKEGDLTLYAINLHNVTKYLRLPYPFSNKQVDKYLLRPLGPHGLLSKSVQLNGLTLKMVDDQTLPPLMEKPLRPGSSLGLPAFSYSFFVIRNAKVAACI
The conditions noted are these: prior art; cited from earlier work.

The conditions of assay [4]: prior art; cited from earlier work.

Experimental for SU-DHL-6 lymphoma cells: The indicated lymphoma cells (5×10^6) were implanted subcutaneously in NOD/SCID mice (n=7) and mice were administered with PG545 (IP, 20 mg/kg, once weekly, starting one day after cell inoculation), or control vehicle (PBS; Con). At termination, tumors were removed, weighted and embedded in paraffin for histological and immunohistochemical analyses. Mice were similarly inoculated with the indicated lymphoma cells and were treated with the indicated concentration of PG545 (mg/kg once a week; FIG. 1C) or were treated with PG545 (20 mg/kg once a week) once the tumors became palpable (FIG. 1D). Shown are average (±SE) tumor weight (gr.).

Turning to `CC(C)CCC[C@@H](C)[C@H]1CC[C@H]2[C@@H]3CC[C@H]4C[C@@H](O[C@@H]5O[C@H](COS(=O)(=O)O)[C@@H](O[C@H]6O[C@H](COS(=O)(=O)O)[C@@H](O[C@H]7O[C@H](COS(=O)(=O)O)[C@@H](O[C@H]8O[C@H](COS(=O)(=O)O)[C@@H](OS(=O)(=O)O)[C@H](OS(=O)(=O)O)[C@H]8OS(=O)(=O)O)[C@H](OS(=O)(=O)O)[C@H]7OS(=O)(=O)O)[C@H](OS(=O)(=O)O)[C@H]6OS(=O)(=O)O)[C@H](OS(=O)(=O)O)[C@H]5OS(=O)(=O)O)CC[C@]4(C)[C@H]3CC[C@]12C` [PG545], the “growth of tumor xenografts (tumor weight)” value was “markedly attenuated” in the assay with Ramos lymphoma cells; “markedly attenuated” with Raji lymphoma cells (Raji, PG545 IP 20 mg/kg once weekly from one day after inoculation); “markedly attenuated” in the assay with Daudi lymphoma cells; “markedly attenuated” in the assay on OCI-LY-19 lymphoma cells; “markedly attenuated” with SU-DHL-6 lymphoma cells. The “heparanase activity in tumor xenograft extracts” value with Raji lymphoma cells (extracts of Raji xenografts on sulfate labelled ECM) is “inhibits heparanase activity”. Besides, the “inhibition of tumor xenograft growth when treated once lesions became palpable” value in [1] (PG545 20 mg/kg once a week (FIG. 1D)) was “significant inhibition”. Also, the “dose dependence of xenograft growth attenuation” value in [1] (indicated concentrations mg/kg once a week (FIG. 1C)) is “dose-dependent manner”. Also, the “growth of tumor xenografts” value in assay [2] is “not inhibited”. Moreover, in assay [3] (ESb s.c. in NOD/SCID mice), the survival of mice result was “prolonged”. Besides, in assay [3] (ESb), the liver metastasis result is given as “reduced liver metastasis”. In addition, the “blood vessel density (CD31) in bone marrow” value in the assay with Raji-luciferase cells is reported as “decreased blood vessel density”. Further, the “expansion of Raji-luciferase cells in the bone marrow” value in the assay on Raji-luciferase cells (IVIS) was “markedly reduced”.
In the case of KKFKNSTYSRSSVD [KKDC], the “inhibition of heparanase activity” value in the assay with heparanase is given as “inhibits heparanase enzymatic activity”. Also, the “interaction with heparin and HS” value in assay [4] was “high affinity”.

Values taken from patent US11161912B2, “Heparanase-neutralizing monoclonal antibodies” (Technion Research & Development Foundation Limited, priority 2015, dated 2021).
